Measurements: paper PMC10126264, “Synergistic effect and antibiofilm activity of the antimicrobial peptide K11 with conventional antibiotics against multidrug-resistant and extensively drug-resistant Klebsiella pneumoniae” (Frontiers in Cellular and Infection Microbiology, 2023)
In brackets after ≈: the same amount, converted by molar mass. Where two headings read alike, the source gives them in different places.

Tests used:
[1] = system: MDR/XDR K. pneumoniae clinical isolates; test: Antimicrobial susceptibility testing, disk diffusion (CLSI); format: cell-based, Klebsiella pneumoniae; conditions: all fifteen isolates, CLSI guidelines
Method: (§1) In this study, fifteen non-duplicate clinical isolates of MDR/XDR K. pneumoniae were obtained from the bacterial repository of the Division of Infectious Diseases and Tropical Medicine, Department of Medicine, Faculty of Medicine Siriraj Hospital, Mahidol University. […] Antimicrobial susceptibility testing was also carried out by the disk diffusion method according to CLSI guidelines ([Clinical and Laboratory Standards Institute, 2021]). Furthermore, all isolates were tested for colistin resistance by broth microdilution based on CLSI recommendations. […] The MDR bacteria was defined as bacteria that are resistant to at least one agent in three or more antimicrobial categories, while the XDR bacteria refer to bacteria that are resistant to at least one agent in all but two or fewer antimicrobial categories based on laboratory results. E. coli ATCC 25922 was used as a reference control strain for susceptibility testing. Other reference strains, including K. pneumoniae ATCC 70063 and K. pneumoniae ATCC BAA-1706 (bla KPC […]), were used as control strains throughout the study.

[2] = system: MDR/XDR K. pneumoniae clinical isolates; test: Colistin MIC, broth microdilution (CLSI); format: cell-based, Klebsiella pneumoniae; conditions: all fifteen isolates, resistance defined as MIC ≥4 µg/mL
Method: as §1

[3] = ref Witherell et al., 2021; cited from earlier work
Description: K11 is a synthetic peptide derived from natural AMPs (cecropin A1, melittin, and maganin 2), composed of 20 amino acids ([…]-NH2). […] Moreover, K11 has also been successfully used in vivo as a topic hydrogel solution against Acinetobacter baumannii-infected wounds ([Rishi et al., 2018]).

[4] = system: MDR/XDR K. pneumoniae clinical isolates; test: microbe, parasite or virus in culture; conditions: Klebsiella pneumoniae
Method: The ability of K11 to inhibit bacterial growth was determined by the broth microdilution method ([Clinical and Laboratory Standards Institute, 2018]). Briefly, a series of 2-fold dilutions of K11 were prepared from 1,024 to 2 µg/mL in cation-adjusted Mueller-Hinton broth (CAMHB), Then 50 µL of each peptide dilution was added to each well of polystyrene 96-well U-bottom microplates. The log-phase cultures were adjusted to 0.5 McFarland standard and diluted 1:100 in CAMHB to provide the density of 10^6 CFU/mL. Consequently, 50 µL of diluted bacterial suspension was added to wells containing 50 µL of peptide solution, followed by incubation for 20-24 h at 37°C. […] To evaluate MBC, a volume of 10 μL was taken from each well with no visible growth, inoculated on Mueller-Hinton agar (MHA) plates, and incubated at 37°C. The MBC was defined as the lowest concentration of antimicrobials that killed at least 99.9% of the initial inoculums ([Clinical and Laboratory Standards Institute, 1999]).

[5] = system: K. pneumoniae ATCC BAA-1706; format: cell-based, Klebsiella pneumoniae; conditions: compared to day 1
Method: The resistance development of K11, ciprofloxacin, and colistin was assessed according to the previously described protocol ([Pollard et al., 2012]). Briefly, MIC values for a K. pneumoniae ATCC BAA-1706 were first examined and recorded. […] This inoculum was subjected to another MIC assay. […] The process was repeated for 30 passages. The MIC values for K11 and antibiotics were recorded and plotted as the MIC fold change compared to day 1 of the experiment.

Compound | antimicrobial susceptibility profile [1] | other results
CO[C@@]1(NC(=O)Cc2cccs2)C(=O)N2C(C(=O)O)=C(COC(N)=O)CS[C@@H]21 [cefoxitin] | resistant | –
colistin [reference compound] | – | MICs, all isolates [2]: ≥ 4 µg/mL; concentration showing significant hemolytic activity [3]: more than 100 μg/mL
C[C@H]1[C@H](NC(=O)/C(=N\OC(C)(C)C(=O)O)c2csc(N)n2)C(=O)N1S(=O)(=O)O [aztreonam] | resistant | –
CO/N=C(\C(=O)N[C@@H]1C(=O)N2C(C(=O)[O-])=C(C[N+]3(C)CCCC3)CS[C@H]12)c1csc(N)n1 [cefepime] | resistant | –
C[C@@H](O)[C@H]1C(=O)N2C(C(=O)O)=C(S[C@@H]3CN[C@H](C(=O)N(C)C)C3)[C@H](C)[C@H]12 [meropenem, reference compound] | – | MIC [4]: 64 µg/mL (≈ 167 µM)
C[C@@H](O)[C@H]1C(=O)N2C(C(=O)O)=C(S[C@@H]3CN[C@H](C(=O)Nc4cccc(C(=O)O)c4)C3)[C@H](C)[C@H]12 [ertapenem] | resistant | –
CO/N=C(\C(=O)N[C@@H]1C(=O)N2C(C(=O)O)=C(CSc3nc(=O)c(=O)[nH]n3C)CS[C@H]12)c1csc(N)n1 [ceftriaxone] | resistant | –
O=C(O)c1cn(C2CC2)c2cc(N3CCNCC3)c(F)cc2c1=O [ciprofloxacin] | – | MIC fold change ([5]; after 7 serial passages at 0.5×MIC): 16 fold; MIC fold change ([5]; after 12 passages at 0.5×MIC, maintained until 30 passages): 64 fold
CO[C@H]1/C=C/O[C@@]2(C)Oc3c(C)c(O)c4c(O)c(c(/C=N/N5CCN(C)CC5)c(O)c4c3C2=O)NC(=O)/C(C)=C\C=C\[C@H](C)[C@H](O)[C@@H](C)[C@@H](O)[C@@H](C)[C@H](OC(C)=O)[C@@H]1C [rifampicin] | – | MIC [4]: 32 µg/mL (≈ 38.9 µM)
CC(C)(O/N=C(\C(=O)N[C@@H]1C(=O)N2C(C(=O)[O-])=C(C[n+]3ccccc3)CS[C@H]12)c1csc(N)n1)C(=O)O [ceftazidime] | resistant | –
O=C(N[C@H](CO)[C@H](O)c1ccc([N+](=O)[O-])cc1)C(Cl)Cl [chloramphenicol] | resistant | MIC [4]: 16 µg/mL (≈ 49.5 µM)
